The values that follow come from patent publication US10053497B2, “Therapeutic epitopes and uses thereof” (OXFORD UNIVERSITY INNOVATION LIMITED, priority 2002, dated 2018).

Assay [1] relates to PBMC from coeliac disease subjects. In words: IFNγ ELISPOT with PBMC of coeliac disease subjects after bread/gluten challenge (agonist bioactivity of peptides). In kind it is cell-based, human. As to conditions: for Dose response: n=8.
Assay [2] deals with PBMC of HLA-DQ2+ coeliac subjects. Kind of assay: IFNγ ELISpot, comprehensive gliadin epitope mapping in HLA-DQ2+ coeliac subjects after gluten challenge. The format is cell-based, human. As to conditions: after gluten challenge. The gist of the method:
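PBMC (2-8×10^5/well) from HLA-DQ2+ coeliac subjects on gluten-free diet were taken before and on day 6/7 after 3-day bread challenge. They were incubated overnight with 20mer peptides or pools (20 μg/ml each), ± tTG deamidation (tTG 64 μg/ml in wells), in RPMI/10% human AB serum. Net sfc/million minus blank; single-peptide responses as % of P04722 77-93 QE85.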

Assay [3] has as its system PBMC of newly diagnosed coeliac subjects. In words: IFNγ ELISpot in newly diagnosed coeliac disease: duration of gluten free diet before gluten challenge. In kind it is cell-based, human.
In assay [4] the test system is PBMC from coeliac disease subjects. Kind of assay: HLA class II restriction: IFNγ ELISPOT after preincubation of PBMC with anti-HLA-DR, -DQ, -DP antibodies. In kind it is cell-based, human. The note with it: PBMC day 6, long-term GFD; tTG-gliadin 100, peptide 50, PPD 5 mcg/ml.
The target of another assay is T1, tTG (UniProt P08587).
T1 construct: purchased Sigma T-5398
T1 sequence (P08587 1-690): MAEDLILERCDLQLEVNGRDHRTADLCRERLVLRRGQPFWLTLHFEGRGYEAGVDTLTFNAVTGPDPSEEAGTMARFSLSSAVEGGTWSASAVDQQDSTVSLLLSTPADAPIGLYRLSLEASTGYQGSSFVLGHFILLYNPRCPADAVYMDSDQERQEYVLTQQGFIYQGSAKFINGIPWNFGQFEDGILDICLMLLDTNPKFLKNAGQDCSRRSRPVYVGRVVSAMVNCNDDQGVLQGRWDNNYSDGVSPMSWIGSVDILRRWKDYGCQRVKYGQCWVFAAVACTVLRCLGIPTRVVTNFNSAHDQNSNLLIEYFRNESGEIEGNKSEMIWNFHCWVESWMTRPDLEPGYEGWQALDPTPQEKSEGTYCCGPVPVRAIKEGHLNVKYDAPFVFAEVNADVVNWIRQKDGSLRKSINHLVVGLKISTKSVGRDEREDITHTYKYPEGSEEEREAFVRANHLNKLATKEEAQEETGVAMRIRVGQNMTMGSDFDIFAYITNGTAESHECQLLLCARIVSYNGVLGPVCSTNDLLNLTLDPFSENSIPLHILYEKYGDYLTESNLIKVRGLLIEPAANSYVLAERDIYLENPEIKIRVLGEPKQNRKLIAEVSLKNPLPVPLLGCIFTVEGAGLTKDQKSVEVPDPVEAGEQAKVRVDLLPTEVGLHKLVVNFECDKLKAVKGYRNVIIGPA
In words: Deamidation of A-gliadin 56-75 by tTG (HPLC, amino acid sequencing). The note with it: tTG 50 μg/ml, 37° C., 2 hours. In kind it is biochemical, guinea pig. Here is the method: A-gliadin 56-75 […] (SEQ ID NO:5) (0.1 μM) was incubated with tTG (50 μg/ml) at 37° C. for 2 hours. A single product was identified and purified by reverse phase HPLC. Amino acid analysis allowed % deamidation (Q→E) of each Gln residue in A-gliadin 56-75 (SEQ ID NO:5) attributable to tTG to be calculated (vertical axis).
Coeliac disease subjects following a gluten free diet, consumed 4 slices of gluten-containing bread (50 g/slice, Sainsbury's “standard white sandwich bread”) daily for 3 or 10 days. EMA was assessed the week before and up to two months after commencing the bread challenge. […] Peptides were assessed in duplicate wells, and Mycobacterium tuberculosis purified protein derivative (PPD RT49) (Serum Institute; Copenhagen, Denmark) (20 μg/ml) was included as a positive control in all assays. […] Digestion of gliadin was verified by SDS-PAGE and protein concentration assessed. α-Chymotrypsin-digested gliadin (640 μg/ml) and synthetic gliadin peptides (15-mers: 160 μg/ml, other peptides: 0.1 mM) were individually treated with tTG (Sigma; T-5398) ([…]) in PBS+CaCl2 1 mM for 2 h at 37° C. […] Deamidation of glutamyl residues was defined as the amount (pmol) of glutamate recovered expressed as a percent of the combined amount of glutamine and glutamate recovered in cycles 2, 4, 8, 10, 15 and 17 of the amino acid sequencing. […]

Assay [5] has as its system PBMC from coeliac subjects. Kind of assay: Immunomagnetic bead depletion (CD4, CD8, β7, αE) of PBMC followed by IFNγ ELISpot. As to conditions: 0.1 μM. In kind it is cell-based, human.

Regarding “QLQPFPQPELPYPQPQS [A-gliadin 57-73 QE65]”, the Dose response came out at 1 % G01E maximal response in assay [1] (0.025 mcg/ml); 8 % G01E maximal response in assay [1] (0.05 mcg/ml); 10 % G01E maximal response in assay [1] (0.1 mcg/ml); 22 % G01E maximal response in assay [1] (0.25 mcg/ml); 38 % G01E maximal response in assay [1] (0.5 mcg/ml); 43 % G01E maximal response in assay [1] (1 mcg/ml). Besides, the Dose response in assay [1] (2.5 mcg/ml) is listed as 52 % G01E maximal response; in assay [1] (5 mcg/ml) it was 70 % G01E maximal response; in assay [1] (10 mcg/ml), 81 % G01E maximal response; in assay [1] (25 mcg/ml), 95 % G01E maximal response; in assay [1] (50 mcg/ml) it was 90 % G01E maximal response; in assay [1] (100 mcg/ml), 85 % G01E maximal response. Moreover, in assay [1] (25 mcg/ml, glutamate-substituted peptide, 4 subjects), the “ELISpot response as % A-gliadin 57-73 QE65, E-substituted” value was determined as 100%. Moreover, the “ELISpot response as % A-gliadin 57-73 QE65, Wild type” value in assay [1] (25 mcg/ml, unmodified wild type peptide, 4 subjects, blank 5 (1)%) is 18 (7) %. Besides, the “ELISpot response as % A-gliadin 57-73 QE65, Wildtype + tTG” value in assay [1] (25 mcg/ml, wild type treated with tTG, 4 subjects) is on record as 87 (7) %. Also, the “Bioactivity % of unmodified A-gliadin 57-73 QE65 (G)” value in assay [1] (50 mcg/ml, PBMC from 8 subjects, blank 7.1%) was “(G) (mean 100%, 95% CI 97-104) and blank (no peptide, bl) (mean 7.1%,”. For the same sequence, the “Mean IFNγ ELISPOT response relative to the immunodominant epitope (Glu65)” value in assay [1] (A-gliadin 57-73 with the named amino acid at position 65, 50 μg/ml, 3 subjects, day 6) is 100%. In addition, the “Elisopt response TG” value in assay [1] (peptide treated with transglutaminase, 3 subjects, value (range), A-gliadin 57-73 E65 = 100) was 100(100). In assay [1] (relative to the dominant epitope = 100%), the “γIFN ELISpot response after gluten challenge” value is 100%. In addition, the “Share of peripheral blood T cells secreting IFN-γ in response to gliadin that recognise the epitope” value in assay [2] is given as “at least 40%”. The “IFNγ ELISpot response, Day 0, 1 week gluten free diet” value in assay [3] (GFD: 1 week) is 1 IFNγ specific spots/million PP. Besides, the “IFNγ ELISpot response, Day 6 of gluten challenge, 1 week gluten free diet” value in assay [3] (GFD: 1 week) is 4 IFNγ specific spots/million PP. The “IFNγ ELISpot response, Day 0, 2 weeks gluten free diet” value in assay [3] (GFD: 2 weeks) is on record as 2 IFNγ specific spots/million PP. Further, the “IFNγ ELISpot response, Day 6 of gluten challenge, 2 weeks gluten free diet” value in assay [3] (GFD: 2 weeks) was 28 IFNγ specific spots/million PP. For the same sequence, the “IFNγ ELISpot response, Day 0, 8 weeks gluten free diet” value in assay [3] (GFD: 8 weeks) was 1 IFNγ specific spots/million PP. Moreover, in assay [3] (GFD: 8 weeks), the “IFNγ ELISpot response, Day 6 of gluten challenge, 8 weeks gluten free diet” value is 48 IFNγ specific spots/million PP. Further, in assay [3] (GFD: none), the “IFNγ ELISpot response, Day 0, no gluten free diet” value is on record as 5 IFNγ specific spots/million PP. Further, the “IFNγ ELISpot response, Day 6 of gluten challenge, no gluten free diet” value in assay [3] (GFD: none) is reported as 0 IFNγ specific spots/million PP. The “ELISpot response after preincubation with anti-HLA-DQ antibody (DQ-)” value in assay [4] amounted to 22 % inhibition. Moreover, the “ELISpot response after preincubation with anti-HLA-DR antibody (DR-)” value in assay [4] is listed as 90 % inhibition.
In the case of LQLQPFPQPQLPYPQPQSFP [A-gliadin 56-75], the “Glutamine residue deamidated by tTG” value with tTG was “Q65 (SEQ ID NO:5) was preferentially deamidated by tTG”.
As to “LQLQPFPQPELPYPQPQSFP [tTG treated A-gliadin 56-75]”, in assay [5], the “IFN-g ELISPOT response of CD8 depleted PBMC, Subject 4” value is 29 spot forming cells per million CD8 depleted PBMC and the “IFN-g ELISPOT response of CD8 depleted PBMC, Subject 6” value is reported as 535 spot forming cells per million CD8 depleted PBMC.
